{"source": "paper PMC12281485", "about": "“High-Throughput Screening of Potent Drug-like Molecules Targeting 17β-HSD10 for the Treatment of Alzheimer’s Disease and Cancer” (ACS Chemical Biology, 2025)", "key": {"17β-HSD10 [1]": {"target": "T1, 17β-HSD10 (Homo sapiens, UniProt Q99714)", "T1 construct": "Recombinant 17β-HSD10 was expressed and purified as previously described in Aitken et al; made in house", "T1 sequence (Q99714 1-261)": "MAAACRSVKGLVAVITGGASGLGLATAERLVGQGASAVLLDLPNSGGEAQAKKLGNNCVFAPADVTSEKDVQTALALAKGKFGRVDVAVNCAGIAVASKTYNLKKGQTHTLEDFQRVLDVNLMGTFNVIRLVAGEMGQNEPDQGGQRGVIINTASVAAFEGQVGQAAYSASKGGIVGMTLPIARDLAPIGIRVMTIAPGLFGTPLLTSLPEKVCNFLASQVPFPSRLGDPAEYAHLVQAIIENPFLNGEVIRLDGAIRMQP", "test": "(−)-CHANA fluorescence assay of cellular 17β-HSD10 activity", "format": "cell-based", "conditions": "read-out: cellular 17β-HSD10 activity mean pEC50 (converted)", "procedure": "(−)–CHANA ((−)-cyclohexenyl amino naphthalene alcohol) is a fluorogenic probe that can be used to detect 17β-HSD10 activity in living cells. HEK293 17β-HSD10 cells were seeded at a density of 10,000 cells per well (100 μL, 96-well black plates) in phenol-red free media (10% FBS, 1 mM sodium pyruvate, 100 units penicillin, 0.1 mg mL^–1 streptomycin, and 2 mM L-glutamine). […] The fluorogenic probe (−)–CHANA was then added to each well to give a final assay concentration of 20 μM. Fluorescence was immediately measured using the FLUOstar Optima microplate reader (excitation = 380 nm, emission = 520 nm, orbital averaging = 3 mm), and the initial reaction was monitored for 3–4 h. EC50 was calculated from the control-subtracted triplicates using nonlinear regression (four parameters) of GraphPad Prism 5 software. The Final EC50 and SEM values were obtained as a mean of at least three independent measurements."}, "[2]": {"test": "Mouse hepatocyte metabolic stability", "format": "in vitro ADME", "set-up": "k (elimination constant): unit not given here", "conditions": "mouse hepatocytes; for Heps category: metabolism category; for Cl (clearance): limits of quantitation 0.5 and 50; for half-life: read-out: T1/2 (half-life)", "procedure": "(§1) Hepatocyte isolation, hepatocyte incubations for metabolic stability, plasma protein binding (PPB) experiments, and LC/MS sample analysis were carried out as previously described in Brandon et al. and MacLeod et al.\nXLfit (IDBS, UK) was used to calculate the exponential decay and the rate constant (k) from the ratio of the peak area of the test compound to the internal standard at each time point. […] Verapamil, 7-ethoxycoumarin, 7-hydroxycoumarin, and phthalazine were used as positive controls to confirm acceptable assay performance. […] Values were transferred to RStudio v1.3.1093 (Posit, Boston, MA, USA) for generation of scatter plots and heatmaps using the ggplot2 package (Wickham 2016)."}, "17β-HSD10 [3]": {"target": "T1, 17β-HSD10", "test": "17β-HSD10 enzyme inhibition dose-response assay (acetoacetyl-CoA/NADH, absorbance 340 nm)", "format": "biochemical", "procedure": "Recombinant 17β-HSD10 was expressed and purified as previously described in Aitken et al.\n17β-HSD10 screening was carried out as described in Aitken et al. with the exception that experiments were also conducted in clear-bottom 1536-well low-volume microplates (Corning) with a final assay volume of 20 μL. For primary screening, an endpoint assay format was adopted, in which an Echo acoustic liquid dispenser (Labcyte) was used to transfer 20 nL of either DMSO control […] or test compounds (10 μM) to the assay plate. 10 μL of the 17β-HSD10 enzyme in an assay buffer (2.5 nM) was then added to the plates using the Preddator liquid handling robot (Redd and Whyte), and plates were incubated at RT for 15 min. 10 μL of the substrate mixture (100 μM acetoacetyl-CoA and 100 μM NADH) was added with the Preddator. To start the reaction, the plates were left to incubate for 35 min at RT before the absorbance at 340 nm was read on the EnVision plate reader (PerkinElmer). For the kinetic assay format and dose-response follow-up experiments, the same protocol was adopted, except that the absorbance at 340 nm was monitored constantly for 45 min from immediately after the reaction was started."}, "[4]": {"test_system": "HEK293 cells overexpressing 17β-HSD10", "test": "LDH cytotoxicity assay", "format": "cell-based, human", "conditions": "50 μM compound, 24 h, n = 3 ± SD", "procedure": "Cell cytotoxicity was assessed via the measurement of LDH leakage into the culture medium using a commercially available kit from Pierce (Thermo Scientific cat no. 88953). This was carried out in accordance with the kit guidelines, with the activity of LDH being calculated from the change in absorbance at […]. Human embryonic kidney (HEK293) cells overexpressing 17β-HSD10 were cultured in phenol-red free media (10% FBS, 1 mM sodium pyruvate, 100 units penicillin, 0.1 mg mL^–1 streptomycin, and 2 mM L-glutamine) and seeded at a density of 10,000 cells per well (100 μL, 96-well plates). […] Treated cells were then incubated at 37 °C and CO2 (5%) for 24 h before the LDH assay was performed as per the manufacturer’s instructions. Spontaneous control (water) and maximum control (lysis buffer) were used in accordance with the kit guide. Absorbance was measured at 490 and 680 nm using the SpectraMaxM2e spectrophotometer. The measured LDH activity was used to calculate %cytotoxicity using the following equation (eq ): %cytotoxicity=(compoundtreatedLDHactivity−spontaneousLDHactivity)/(maximumLDHactivity−spontaneousLDHactivity)×100 1"}, "[5]": {"test": "Alamar Blue cell viability assay", "format": "cell-based, human", "conditions": "human, HEK293 cells overexpressing 17β-HSD10, 50 μM compound, n = 3 ± SD, read-out: Alamar Blue % viability (50 μM dose)", "procedure": "Cell viability was assessed via fluorescence change using the commercially available Alamar Blue from ThermoFisher. HEK293 cells overexpressing 17β-HSD10 were cultured in phenol-red free media (10% FBS, 1 mM sodium pyruvate, 100 units penicillin, 0.1 mg mL^–1 streptomycin, and 2 mM L-glutamine) and seeded at a density of 10,000 cells per well (100 μL, 96-well plates). […] Treated cells were then incubated at 37 °C and CO2 (5%) for 24 h before the assay was performed as per the manufacturer’s instructions. Fluorescence was measured at 530 nm excitation and 590 nm emission using the SpectraMaxM2e spectrophotometer."}, "[6]": {"test": "Mouse plasma protein binding", "format": "in vitro ADME", "conditions": "read-out: mouse PPB (% free)", "procedure": "as §1"}, "17β-HSD10 [7]": {"target": "T1, 17β-HSD10", "set-up": "method as in Kissinger et al.", "conditions": "Table 5, ref Kissinger et al.; cited from earlier work"}, "[8]": {"conditions": "Table 4, 17β-HSD10 overexpressing HEK293 cells, CHANA fluorescence assay"}, "[9]": {"conditions": "Table 5, HEK293 17β-HSD10 cells, CHANA assay"}}, "note": "Like-named read-outs stand apart in the source and are kept apart here. Marks after values point to notes of the source that are not given here.", "data": [{"smiles": "O=C(c1sccc1Cl)N1CCC[C@H]1c1ccccc1-c1cc(O)ccc1F", "note": "[ESC1002842]", "values": [{"measurement": "EC50", "setting": "17β-HSD10 [1]; [8]", "result": 40, "unit": "nM"}, {"measurement": "EC50", "setting": "17β-HSD10 [1]; [9]", "result": 40, "unit": "nM"}, {"measurement": "k (elimination constant)", "setting": "[2]", "result": 0.17}, {"measurement": "Heps category", "setting": "[2]", "result": "high"}, {"measurement": "Cl (clearance)", "setting": "[2]", "result": ">50", "unit": "mL/min/g liver"}, {"measurement": "half-life", "setting": "[2]", "result": 4, "unit": "min"}, {"measurement": "IC50", "setting": "17β-HSD10 [3]; Table 3, chemically modified singleton hit compound series, read-out: 17β-HSD10 pIC50 (converted)", "result": 40.7, "unit": "nM"}, {"measurement": "LDH % toxicity (50 μM dose)", "setting": "[4]", "result": "5.90 ± 0.004", "unit": "%"}, {"measurement": "viability at 24 h, 50 μM", "setting": "[5]", "result": "82.44 ± 0.32", "unit": "%"}, {"measurement": "fraction unbound", "setting": "[6]", "result": 0.034}]}, {"smiles": "CC(C)CN(C(=O)c1c(F)cccc1F)c1cccc(N(C)Cc2c[nH]cn2)c1", "note": "[ESC1002456]", "values": [{"measurement": "EC50", "setting": "17β-HSD10 [1]; [8]", "result": 141, "unit": "nM"}, {"measurement": "EC50", "setting": "17β-HSD10 [1]; [9]", "result": 141, "unit": "nM"}, {"measurement": "k (elimination constant)", "setting": "[2]", "result": 0.018}, {"measurement": "Heps category", "setting": "[2]", "result": "high"}, {"measurement": "Cl (clearance)", "setting": "[2]", "result": 8.6, "unit": "mL/min/g liver"}, {"measurement": "half-life", "setting": "[2]", "result": 38.5, "unit": "min"}, {"measurement": "IC50", "setting": "17β-HSD10 [3]; Table 2, chemically modified cluster hit compounds, read-out: 17β-HSD10 pIC50 (converted)", "result": 138, "unit": "nM"}, {"measurement": "IC50", "setting": "17β-HSD10 [3]; Table 5, read-out: mean 17β-HSD10 pIC50 (converted)", "result": 138, "unit": "nM"}, {"measurement": "LDH % toxicity (50 μM dose)", "setting": "[4]", "result": "4.78 ± 0.01", "unit": "%"}, {"measurement": "viability at 24 h, 50 μM", "setting": "[5]", "result": "79.2 ± 1.21", "unit": "%"}, {"measurement": "fraction unbound", "setting": "[6]", "result": 0.089}]}, {"smiles": "O=C(C(c1ccccc1)n1cnc2[nH]ncc2c1=S)N1CCCCCC1", "note": "(centres unmarked) [AG18051, reference compound]", "values": [{"measurement": "mean 17β-HSD10 pIC50", "setting": "17β-HSD10 [7]", "result": "7.04 ^b"}, {"measurement": "T1/2 (half-life)", "setting": "[2]", "result": 6.6, "unit": "min"}, {"measurement": "k (elimination constant)", "setting": "[2]", "result": 0.11}, {"measurement": "Heps category", "setting": "[2]", "result": "High"}, {"measurement": "Cl (clearance)", "setting": "[2]", "result": ">50", "unit": "mL/min/g liver"}]}]}
